The source of these data is ChEMBL document CHEMBL3714730, “Diaminopyrimidines as P2X3 and P2X2/3 modulators” (2009).

Test [1] addresses P2X2/P2X3 heterotrimeric receptor (Homo sapiens) (UniProt Q9UBL9+P56373). As to the kind of experiment: Antagonist activity against human P2X2/3 receptor expressed in CHOK1 cells assessed as inhibition of alpha,beta-meATP-induced calcium response incubated for 20 mins by Fluo-3AM dye based FLIPR assay. The test is classed as functional, cell-based. As to conditions: CHO-K1.
The target of test [2] is T1, P2X purinoceptor 3 (Rattus norvegicus) (UniProt P49654).
T1 sequence (whole entry): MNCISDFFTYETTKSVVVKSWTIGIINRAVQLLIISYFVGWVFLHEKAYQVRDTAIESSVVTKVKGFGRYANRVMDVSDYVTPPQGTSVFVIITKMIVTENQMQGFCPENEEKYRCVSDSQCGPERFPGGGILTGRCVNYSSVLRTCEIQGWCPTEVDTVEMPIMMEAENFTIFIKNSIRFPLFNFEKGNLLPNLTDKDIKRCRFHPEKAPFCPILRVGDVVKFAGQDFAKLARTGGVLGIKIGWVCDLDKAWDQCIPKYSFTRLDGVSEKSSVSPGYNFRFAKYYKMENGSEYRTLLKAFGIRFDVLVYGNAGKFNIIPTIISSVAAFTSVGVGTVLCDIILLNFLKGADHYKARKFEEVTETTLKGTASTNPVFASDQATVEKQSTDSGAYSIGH
Nature of the test: Antagonist activity against rat P2X3 receptor expressed in CHOK1 cells assessed as inhibition of alpha,beta-meATP-induced calcium response incubated for 20 mins by Fluo-3AM dye based FLIPR assay. The test is classed as functional, cell-based. To be noted: CHO-K1.

The source made the active and inactive calls. The calls are words filed in the database; no cut-off is given here.

For `CCCC#Cc1cc(Oc2cnc(N)nc2N)c(C(C)C)cc1OC`, the inhibition result in test [1] and in test [2] was “Active” each time.

Consider `C#Cc1cc(Oc2cnc(NC(C)CO)nc2N)c(C(C)C)cc1OC` (configuration not stated), for which the inhibition entry in test [1] and in test [2] was “Active” each time.

For `C#Cc1ccc(C(C)C)c(Oc2cnc(N)nc2N)c1`, the inhibition entry in test [1] and in test [2] was “Active” each time.

Take `COc1cc(C(C)C)c(Oc2cnc(N)nc2N)cc1C#CCCC#N`: the inhibition entry in test [1] and in test [2] was “Active” throughout.

For `COc1cc(C(C)C)c(Oc2cnc(N)nc2N)cc1C#C[Si](C)(C)C`, the inhibition result in test [1] and in test [2] was “Active” throughout.

For the compound `COc1cc(C(C)C)c(Oc2cnc(N)nc2N)cc1C#Cc1ccccn1`, the inhibition result in test [1] and in test [2] was “Active” in each case.

`C#Cc1cc(Oc2cnc(N)nc2N)c(C(C)C)cc1OCCO`: the inhibition entry in test [1] and in test [2] was “Active” throughout.

Consider `C#Cc1cc(Oc2cnc(NC3CCN(S(C)(=O)=O)CC3)nc2N)c(C(C)C)cc1OC`, for which the inhibition result in test [1] and in test [2] was “Active” in each case.

`C#Cc1cc(Oc2cnc(N)nc2N)c(C(C)C)cc1OC`: the inhibition result in test [1] and in test [2] was “Active” each time.

Take `C#Cc1cc(Oc2cnc(NC3CCOCC3)nc2N)c(C(C)C)cc1OC`: the inhibition entry in test [1] and in test [2] was “Active” throughout.

In the case of `C#Cc1cc(Oc2cnc(NCCCO)nc2N)c(C(C)C)cc1OC`, the inhibition result in test [1] and in test [2] was “Active” each time.

With `C#Cc1cc(Oc2cnc(N)nc2N)c(C(C)C)cc1F`, the inhibition entry in test [1] and in test [2] was “Active” each time.

Take `CC#Cc1cc(Oc2cnc(N)nc2N)c(C(C)C)cc1OC`: the inhibition entry in test [1] and in test [2] was “Active” in each case.

Regarding `COc1cc(C(C)C)c(Oc2cnc(N)nc2N)cc1C#Cc1ccsc1`, the inhibition entry in test [1] and in test [2] was “Active” each time.

With `C#Cc1ccc(C#C)c(Oc2cnc(N)nc2N)c1`, the inhibition entry in test [1] and in test [2] was “Active” in each case.

For the compound `C#Cc1cc(Oc2cnc(NCCN3CCCCC3)nc2N)c(C(C)C)cc1OC`, the inhibition entry in test [1] and in test [2] was “Active” each time.

Take `C#Cc1cc(Oc2cnc(N)nc2N)c(C(C)C)cc1Cl`: the inhibition entry in test [1] and in test [2] was “Active” in each case.

On to `COc1cc(C(C)C)c(Oc2cnc(N)nc2N)cc1C#CCO`, for which the inhibition result in test [1] and in test [2] was “Active” in each case.

Take `C#Cc1cc(Oc2cnc(N)nc2N)c(C(C)C)cc1OCc1cccc(F)c1`: the inhibition entry in test [1] and in test [2] was “Active” in each case.

Consider `C#Cc1cc(Oc2cnc(NCC(C)O)nc2N)c(C(C)C)cc1OC` (configuration not stated), for which the inhibition result in test [1] and in test [2] was “Active” each time.

For `C#Cc1cc(Oc2cnc(NCCN(C)C)nc2N)c(C(C)C)cc1OC`, the inhibition entry in test [1] and in test [2] was “Active” each time.

On to `COc1cc(C(C)C)c(Oc2cnc(N)nc2N)cc1C#CCCO`, for which the inhibition entry in test [1] and in test [2] was “Active” each time.

`COc1cc(C(C)C)c(Oc2cnc(N)nc2N)cc1C#Cc1ccccc1`: the inhibition entry in test [1] and in test [2] was “Active” throughout.

As for `CC#Cc1cc(Oc2cnc(N)nc2N)c(C(C)C)cc1F`, the inhibition result in test [1] and in test [2] was “Active” each time.

In the case of `C#Cc1cc(Oc2cnc(NCCN3CCOCC3)nc2N)c(C(C)C)cc1OC`, the inhibition entry in test [1] and in test [2] was “Active” each time.

`COc1cc(C(C)C)c(Oc2cnc(N)nc2N)cc1C#Cc1ccncc1`: the inhibition entry in test [1] and in test [2] was “Active” throughout.

As for `C#Cc1cc(Oc2cnc(N)nc2N)c(CC)cc1OC`, the inhibition result in test [1] and in test [2] was “Active” throughout.

For `CNCC#Cc1cc(Oc2cnc(N)nc2N)c(C(C)C)cc1OC`, the inhibition result in test [1] and in test [2] was “Active” in each case.

With `COc1cc(C(C)C)c(Oc2cnc(N)nc2N)cc1C#Cc1cncn1C`, the inhibition result in test [1] and in test [2] was “Active” in each case.

Take `C#Cc1cc(Oc2cnc(N)nc2N)c(C#C)cc1OC`: the inhibition entry in test [1] and in test [2] was “Active” each time.

For the compound `C#Cc1cc(Oc2cnc(NCCO)nc2N)c(C(C)C)cc1OC`, the inhibition entry in test [1] and in test [2] was “Active” each time.

Take `COCC#Cc1cc(Oc2cnc(N)nc2N)c(C(C)C)cc1OC`: the inhibition entry in test [1] and in test [2] was “Active” throughout.

On to `COc1cc(C(C)C)c(Oc2cnc(N)nc2N)cc1C#Cc1cccnc1`, for which the inhibition result in test [1] and in test [2] was “Active” in each case.

Consider `COc1cc(C(C)C)c(Oc2cnc(N)nc2N)cc1C#CCCCO`, for which the inhibition entry in test [1] and in test [2] was “Active” each time.

Take `C#Cc1cc(Oc2cnc(NC(CO)CO)nc2N)c(C(C)C)cc1OC`: the inhibition entry in test [1] and in test [2] was “Active” in each case.

As for `COc1cc(I)cc(Oc2cnc(N)nc2N)c1C(C)C`, the inhibition entry in test [1] and in test [2] was “Active” each time.

Regarding `C#Cc1ccc(I)c(Oc2cnc(N)nc2N)c1`, the inhibition entry in test [1] and in test [2] was “Active” each time.

For the compound `C#Cc1cc(OC)c(C(C)C)c(Oc2cnc(N)nc2N)c1`, the inhibition entry in test [1] and in test [2] was “Active” each time.

In the case of `C#Cc1cc(OC)c(I)cc1Oc1cnc(N)nc1N`, the inhibition result in test [1] and in test [2] was “Active” each time.

With `COc1cc(C(C)C)c(Oc2cnc(N)nc2N)cc1C#CC1CC1`, the inhibition result in test [1] and in test [2] was “Active” throughout.

`C#Cc1cc(Cc2cnc(N)nc2N)c(C(C)C)cc1OC`: the inhibition entry in test [1] and in test [2] was “Active” in each case.
